Tests used:
[1] = test system: db/db diabetic mice; assay: Effect of oral administration of osthole on blood glucose level of db/db diabetic mice; format: in vivo; details: male db/db mice, 50 mg/kg by gastric tube once daily, five days a week for three weeks, fasted about 16 hours; before treatment about 200 mg/dL; PBS control 400 mg/dL
Protocol: Six male db/db diabetic mice (5 to 7 week-old, purchased from National Laboratory Animal Center (Taipei, Taiwan)) were fasted for over 8 hours and venous blood was collected for the measurement of blood glucose level. The mice were divided into two groups (control group and experimental group) on the basis of their blood glucose level and body weight. The mice in the control group were fed with PBS by gastric tube. The mice in the experimental group were fed with osthole (50 mg/kg body weight) by gastric tube. The PBS and osthole were administered once daily, five days a week for three weeks. The mice were then fasted for about 16 hours before being sacrificed and blood samples were collected for the measurement of blood glucose level. […] After three weeks of treatment, the blood glucose level of the mice in the control group was elevated to 400 mg/dL; whereas, the blood glucose level of the mice in the experimental group was maintained at about 210 mg/dL.

[2] = test system: db/db diabetic mice; assay: Effect of intraperitoneal administration of osthole on blood glucose level of db/db diabetic mice; format: in vivo; details: male db/db mice, 50 mg/kg intraperitoneal once daily, five days a week for two weeks, fasted about 16 hours; before treatment about 360 mg/dL; DMSO control 550 mg/dL
Protocol: Six male db/db diabetic mice (6 to 11 week-old, purchased from National Laboratory Animal Center (Taipei, Taiwan)) were fasted for over 8 hours and venous blood was collected for the measurement of blood glucose level. The mice were divided into two groups (control group and experimental group) on the basis of their blood glucose level and body weight. The mice in the control group were given the solvent DMSO by means of intraperitoneal administration. The mice in the experimental group were given osthole (50 mg/kg body weight) (purchased from Hangzhou Gosun Biotechnologies Co., Zhejiang, China) by means of intraperitoneal administration. The solvent and osthole were administered once daily, five days a week for two weeks. The mice were then fasted for about 16 hours before being sacrificed and blood samples were collected for the measurement of blood glucose levels. […] After two weeks of treatment, the blood glucose level of the mice in the control group was elevated to 550 mg/dL, whereas the blood glucose level of the mice in the experimental group was maintained at about 360 mg/dL.

SMILES: COc1ccc2ccc(=O)oc2c1CC=C(C)C [osthole, 7-methoxy-8-(3-methyl-2-butenyl)-2H-1-benzopyran-2-one]
- blood glucose level after three weeks of treatment [1]: about 210 mg/dL
- blood glucose level after two weeks of treatment [2]: about 360 mg/dL
